In US20240158446A1, “CYCLIC COMPOUND HAVING SELECTIVE INHIBITORY ACTION ON KRAS OVER HRAS AND NRAS” (CHUGAI SEIYAKU KABUSHIKI KAISHA, priority 2021, published 2024):
Where two headings read alike, the source gives them in different places.

What was measured:
[1] = molecular target: GDP-bound KRAS wild-type protein (Homo sapiens, UniProt P01116); experiment: Binding to KRAS by surface plasmon resonance (SPR), Single Cycle Kinetics
[2] = test system: human lung cancer strain NCI-H441;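 further: cell proliferation inhibition after four days measured by CellTiter-Glo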
[3] = molecular target: GDP-bound NRAS wild-type protein (Homo sapiens, UniProt P01111); experiment: Binding to NRAS by surface plasmon resonance (SPR), Single Cycle Kinetics; settings: for NRAS/KRAS (ratio of KD value with respect to GDP-bound NRAS wild-type protein to KD value with respect to KRAS): SPR KD ratio NRAS/KRAS, class symbols
Chain of GDP-bound NRAS wild-type protein (P01111 whole entry): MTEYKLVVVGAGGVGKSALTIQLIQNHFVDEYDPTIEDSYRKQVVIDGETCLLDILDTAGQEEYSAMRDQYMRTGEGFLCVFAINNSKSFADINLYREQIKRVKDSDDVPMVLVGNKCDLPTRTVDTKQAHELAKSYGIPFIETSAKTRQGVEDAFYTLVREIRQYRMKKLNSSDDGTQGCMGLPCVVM

[4] = molecular target: GDP-bound HRAS wild-type protein (Homo sapiens, UniProt P01112); experiment: Binding to HRAS by surface plasmon resonance (SPR), Single Cycle Kinetics; settings: for HRAS/KRAS (ratio of KD value with respect to GDP-bound HRAS wild-type protein to KD value with respect to KRAS): SPR KD ratio HRAS/KRAS, class symbols
Chain of GDP-bound HRAS wild-type protein (P01112 whole entry): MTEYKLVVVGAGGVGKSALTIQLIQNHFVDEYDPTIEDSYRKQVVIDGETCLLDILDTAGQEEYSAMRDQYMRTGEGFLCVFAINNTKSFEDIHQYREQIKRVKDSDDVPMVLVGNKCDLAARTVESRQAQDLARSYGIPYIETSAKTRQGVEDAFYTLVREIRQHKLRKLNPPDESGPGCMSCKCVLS

[5] = SPR, Single Cycle Kinetics, GDP-bound KRAS wild-type protein, read-out: KRAS KD
[6] = SPR, GDP-bound NRAS wild-type protein vs GDP-bound KRAS wild-type protein
[7] = SPR, GDP-bound HRAS wild-type protein vs GDP-bound KRAS wild-type protein
[8] = SPR Single Cycle Kinetics, GDP-bound KRAS wild-type protein, 1:1 binding model, read-out: KRAS KD
[9] = SPR, Single Cycle Kinetics, 1:1 binding model, GDP-bound KRAS wild-type protein, read-out: KRAS KD
[10] = SPR, GDP-bound NRAS wild-type protein vs GDP-bound KRAS wild-type protein, KD ratio class
[11] = SPR, GDP-bound HRAS wild-type protein vs GDP-bound KRAS wild-type protein, KD ratio class

Chain of GDP-bound KRAS wild-type protein (P01116 whole entry): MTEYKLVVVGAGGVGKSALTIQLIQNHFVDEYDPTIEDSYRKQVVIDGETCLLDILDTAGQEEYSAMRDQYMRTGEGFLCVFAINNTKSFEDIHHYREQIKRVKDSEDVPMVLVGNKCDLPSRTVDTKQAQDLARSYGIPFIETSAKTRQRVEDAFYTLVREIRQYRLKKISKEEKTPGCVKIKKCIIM

Row | Kd [1, 5] | IC50 [2] | Kd [1, 8] | Kd [1, 9] | Structure (SMILES) | NRAS/KRAS (ratio of KD value for NRAS to KD value for KRAS) [3, 6] | HRAS/KRAS (ratio of KD value for HRAS to KD value for KRAS) [4, 7] | NRAS/KRAS (ratio of KD value for NRAS to KD value for KRAS) [3, 10] | HRAS/KRAS (ratio of KD value for HRAS to KD value for KRAS) [4, 11] | further results
1 | 1.2 nM | 28.1 nM |  |  | CC[C@H](C)[C@@H]1NC(=O)[C@H](COC)N(C)C(=O)C[C@@H](C(=O)N(C)C)N(C)C(=O)[C@H](C2CCCC2)N(C)C(=O)C2(CC(C)(C)C2)NC(=O)[C@@H]2C[C@H](C)CN2C(=O)[C@H](CCc2ccc(C(F)(F)F)c(OC)c2)NC(=O)CN(C)C(=O)[C@H](Cc2ccc(C)cc2)N2CC/C=C\C[C@@H](C2=O)N(C)C(=O)[C@@H]2C[C@H](C)CN2C1=O [PP2386] | A (a compound having 10 or more and less than 20 is denoted as A) | B (a compound having 3 or more and less than 10 is denoted as B) |  |  | 
2 |  | 80 nM | 1 nM |  | CC[C@H](C)[C@@H]1NC(=O)[C@@H]2CCCCCN2C(=O)C[C@@H](C(=O)N2CCOCC2)N(C)C(=O)[C@H](C2CCCC2)N(C)C(=O)C2(CCCC2)NC(=O)[C@@H]2CCCN2C(=O)[C@H](CCc2cc(F)c(C(F)(F)F)c(F)c2)NC(=O)CN(C)C(=O)[C@H](Cc2ccc(C(F)(F)F)cc2)N2CCCC[C@@H](C2=O)N(C)C(=O)CN(C)C1=O [PP0595] |  |  |  |  | NRAS/KRAS (ratio of KD value with respect to NRAS to KD value with respect to KRAS) [3, 6]: C (A compound having a KD ratio of 0.1 or more and less than 3 is denoted as C); HRAS/KRAS (ratio of KD value with respect to HRAS to KD value with respect to KRAS) [4, 7]: B (a compound having 3 or more and less than 10 is denoted as B)
3 |  | 88.7 nM | 2 nM |  | CCC(CC)[C@H]1C(=O)N(C)[C@H](C(=O)N(C)C)CC(=O)N(C)[C@@H](COC)C(=O)N[C@@H]([C@@H](C)CC)C(=O)N(C2CC2)CC(=O)N(C)[C@H]2C/C=C\CCN(C2=O)[C@@H](CC2CCC(F)(F)CC2)C(=O)N(C)CC(=O)N[C@@H](CCc2cc(F)c(C(F)(F)F)c(F)c2)C(=O)N2C[C@H](OC3CCC3)C[C@H]2C(=O)NC2(CC(C)(C)C2)C(=O)N1C [PP2615] |  |  |  |  | NRAS/KRAS (ratio of KD value with respect to GDP-bound NRAS wild-type protein to KD value with respect to KRAS) [3]: A (a compound having 10 or more and less than 20 is denoted as A); HRAS/KRAS (ratio of KD value with respect to GDP-bound HRAS wild-type protein to KD value with respect to KRAS) [4]: A (a compound having 10 or more and less than 20 is denoted as A)
4 | 0.043 nM |  |  |  | CCC[C@H]1C(=O)N[C@@H]([C@@H](C)CC)C(=O)N(C)CC(=O)N(C)[C@H]2C/C=C\CCN(C2=O)[C@@H](Cc2ccc(C)cc2)C(=O)N(C)CC(=O)N[C@@H](CCc2cc(F)c(C(F)(F)F)c(F)c2)C(=O)N2C[C@H](OCC)C[C@H]2C(=O)N(C)C2(CCC2)C(=O)N(C)[C@@H](C2CCCC2)C(=O)N(C)[C@H](C(=O)N2CCCC2)CC(=O)N1C [PP3121, (2S,8S,12R,14S,20S,23S,27S,30S,36S,38Z)-20-cyclopentyl-8-[2-[3,5-difluoro-4-(trifluoromethyl)phenyl]ethyl]-12-ethoxy-4,16,19,22,26,32,35-heptamethyl-30-[(1S)-1-methylpropyl]-27-propyl-2-(p-tolylmethyl)-23-(pyrrolidine-1-carbonyl)spiro[1,4,7,10,16,19,22,26,29,32,35-undecazatricyclo[34.5.1.0^10,14]dotetracont-38-ene-17,1′-cyclobutane]-3,6,9,15,18,21,25,28,31,34,42-undecone] | A (a compound having 10 or more and less than 20 is denoted as A) | A (a compound having 10 or more and less than 20 is denoted as A) |  |  | Kd ([1]; SPR, Single Cycle Kinetics, 1:1 binding model, read-out: KD value with respect to GDP-bound KRAS wild-type protein): 0.043 nM; IC50 ([2]; read-out: NCI-H441 cell proliferation inhibitory activity, 50% proliferation inhibitory concentration (IC50 value), NCI-H441, four days, CellTiter-Glo): 1.5 nM; ratio of the KD value with respect to GDP-bound NRAS wild-type protein to the KD value with respect to KRAS ([3]; SPR, KD(NRAS)/KD(KRAS)): A (a compound having 10 or more and less than 20 is denoted as A); ratio of the KD value with respect to GDP-bound HRAS wild-type protein to the KD value with respect to KRAS ([4]; SPR, KD(HRAS)/KD(KRAS)): A (a compound having 10 or more and less than 20 is denoted as A)
5 |  | 86.7 nM | 1.1 nM |  | CCC(CC)[C@H]1C(=O)N(C)[C@H](C(=O)N(C)C)CC(=O)N(C)[C@@H](COC)C(=O)N[C@@H]([C@@H](C)CC)C(=O)N2CCC[C@H]2C(=O)N(C)[C@H]2C/C=C\CCN(C2=O)[C@@H](Cc2ccc(C(F)(F)F)cc2)C(=O)N(C)CC(=O)N[C@@H](CCc2ccc(Cl)c(Cl)c2)C(=O)N2C[C@H](OC3CCC3)C[C@H]2C(=O)NC2(CC(C)(C)C2)C(=O)N1C [PP2645] |  |  |  |  | NRAS/KRAS (ratio of KD value with respect to GDP-bound NRAS wild-type protein to KD value with respect to KRAS) [3]: AA (a compound having 20 or more is denoted as AA); HRAS/KRAS (ratio of KD value with respect to GDP-bound HRAS wild-type protein to KD value with respect to KRAS) [4]: A (a compound having 10 or more and less than 20 is denoted as A)
6 | 0.092 nM | 10.6 nM |  |  | CCCOC[C@H]1C(=O)N[C@@H]([C@@H](C)CC)C(=O)N(C)CC(=O)N(C)[C@H]2C/C=C\CCN(C2=O)[C@@H](Cc2ccc(C)cc2)C(=O)N(C)CC(=O)N[C@@H](CCc2ccc(C(F)(F)F)c(Cl)c2)C(=O)N2C[C@H](OCC)C[C@H]2C(=O)NC2(CC(C)(C)C2)C(=O)N(C)[C@@H](C2CCCC2)C(=O)N(C)[C@H](C(=O)N(C)C)CC(=O)N1C [PP2402] | A (a compound having 10 or more and less than 20 is denoted as A) | A (a compound having 10 or more and less than 20 is denoted as A) |  |  | 
7 |  | 7.5 nM |  | 0.032 nM | CCO[C@@H]1C[C@H]2C(=O)NC3(CC(F)(F)C3)C(=O)N(C)[C@@H](C3CCCC3)C(=O)N(C)[C@H](C(=O)N(C)C)CC(=O)N(C)[C@@H](CC)C(=O)N[C@@H]([C@@H](C)CC)C(=O)N(C)CC(=O)N(C)[C@H]3C/C=C\CCN(C3=O)[C@@H](Cc3ccc(C(F)(F)F)cc3)C(=O)N(C)CC(=O)N[C@@H](CCc3cc(F)c(C(F)(F)F)c(F)c3)C(=O)N2C1 [PP1274, (2S,8S,12R,14S,20S,23S,27S,30S,36S,38Z)-20-cyclopentyl-8-[2-[3,5-difluoro-4-(trifluoromethyl)phenyl]ethyl]-12-ethoxy-27-ethyl-1′,1′-difluoro-N,N,4,19,22,26,32,35-octamethyl-30-[(1S)-1-methylpropyl]-3,6,9,15,18,21,25,28,31,34,42-undecaoxo-2-[[4-(trifluoromethyl)phenyl]methyl]spiro[1,4,7,10,16,19,22,26,29,32,35-undecazatricyclo[34.5.1.0^10,14]dotetracont-38-ene-17,3′-cyclobutane]-23-carboxamide] |  |  | A (a compound having 10 or more and less than 20 is denoted as A) | A (a compound having 10 or more and less than 20 is denoted as A) | 
8 |  | 60.4 nM |  | 0.37 nM | CCO[C@@H]1C[C@H]2C(=O)NC3(CCC3)C(=O)N(C)[C@@H](C3CCCC3)C(=O)N(C)[C@H](C(=O)N(C)C)CC(=O)N(C)[C@@H](CC3CC3)C(=O)N[C@@H]([C@@H](C)CC)C(=O)N(C)CC(=O)N(C)[C@H]3C/C=C\CCN(C3=O)[C@@H](Cc3ccc(C(F)(F)F)cc3)C(=O)N(C)CC(=O)N[C@@H](CCc3ccc4sccc4c3)C(=O)N2C1 [PP1260] |  |  | A (a compound having 10 or more and less than 20 is denoted as A) | A (a compound having 10 or more and less than 20 is denoted as A) | 

Row | Structure (SMILES) | Kd [1, 5] | IC50 [2] | Kd [1, 8] | Kd [1, 9] | NRAS/KRAS (ratio of KD value for NRAS to KD value for KRAS) [3, 6] | HRAS/KRAS (ratio of KD value for HRAS to KD value for KRAS) [4, 7] | NRAS/KRAS (ratio of KD value for NRAS to KD value for KRAS) [3, 10] | HRAS/KRAS (ratio of KD value for HRAS to KD value for KRAS) [4, 11] | further results
9 | CCO[C@@H]1C[C@H]2C(=O)NC3(CCC3)C(=O)N(C)[C@@H](C3CCCC3)C(=O)N(C)[C@H](C(=O)N3CCCCC3)CC(=O)N(C)[C@@H](CC)C(=O)N[C@@H]([C@@H](C)CC)C(=O)N(C)CC(=O)N(C)[C@H]3C/C=C\CCN(C3=O)[C@@H](Cc3ccc(C(F)(F)F)cc3)C(=O)N(C)CC(=O)N[C@@H](CCc3cc(F)c(C(F)(F)F)c(F)c3)C(=O)N2C1 [PP1289] |  | 34.7 nM |  | 0.17 nM |  |  | AA (a compound having 20 or more is denoted as AA) | A (a compound having 10 or more and less than 20 is denoted as A) | 
